Common to all, as to format: functional, cell-based
The subject of assay [1] is Huh-7. Description: Cytotoxicity against human HuH7 cells assessed as reduction in cell growth after 48 hrs by MTT assay. The settings on record: for pIC50: Homo sapiens, Huh-7, 48 h, read-out: IC50; for IC50: huh-7. (In general: Tetrazolium dyes change colour on reduction, which living cells bring about.)
Assay [2] relates to HepG2. Description: Cytotoxicity against human HepG2 cells assessed as reduction in cell growth after 48 hrs by MTT assay. The settings on record: for pIC50: Homo sapiens, HepG2, 48 h, read-out: IC50; for IC50: hepg2.
The test system of assay [3] is Huh-7. The assay is described as follows: Cytotoxicity against human HuH7 cells assessed as reduction in cell growth after 48 hrs by MTS assay. The settings on record: Huh-7, 48 h.
The test system of assay [4] is HepG2. Description: Cytotoxicity against human HepG2 cells assessed as reduction in cell growth after 48 hrs by MTS assay. The settings on record: HepG2, 48 h.

pIC50: −log10 of the molar value.

What is called pIC50 is −log10 of the IC50, conventionally taken in molar units. As for `O=C1C=C[C@H]2CO[C@@H]1O2`, the negative logarithm of the IC50 (pIC50) is 4.89 in assay [1] and 4.40 in assay [2].

Turning to `CCCCCCS[C@H]1CC(=O)[C@@H]2OC[C@H]1O2`, the IC50 result in assay [1] and in assay [2] was “Not Active” each time.

On to `Cc1ccc(S[C@H]2CC(=O)[C@@H]3OC[C@H]2O3)cc1`, for which the negative logarithm of the IC50 (pIC50) in assay [1] was 4.89; in assay [2], 4.56.

Regarding `O=C1C[C@H](n2c(=O)oc3ccccc32)[C@H]2CO[C@@H]1O2`, the pIC50 in assay [1] is 5.06; in assay [2], 4.65.

On to `O=C1C(Br)=C[C@H]2CO[C@@H]1O2`, for which the pIC50 in assay [1] is 5.33; in assay [2] it was 4.86.

In the case of `CCCCS[C@H]1CC(=O)[C@@H]2OC[C@H]1O2`, the IC50 entry in assay [1] and in assay [2] was “Not Active” in each case.

Take `Cc1ccc(S[C@H]2CC(O)[C@@H]3OC[C@H]2O3)cc1` (some centres undefined): the IC50 entry in assay [1] and in assay [2] was “Not Active” each time.

On to `CCCCS[C@H]1CC(O)[C@@H]2OC[C@H]1O2` (some centres undefined), for which the IC50 entry in assay [1] and in assay [2] was “Not Active” in each case.

For `O=C1C[C@H](Sc2ccccc2)[C@H]2CO[C@@H]1O2`, the pIC50 in assay [1] is 4.96; in assay [2], 4.77.

As to `COc1cccc2c1C(=O)c1c(O)c3c(c(O)c1C2=O)C[C@@](O)(C(=O)CO)C[C@@H]3O[C@H]1C[C@H](N)[C@H](O)[C@H](C)O1` [DOXORUBICIN], the pIC50 in assay [1] is 6.62; in assay [2], 6.17.

Consider `O=c1[nH]cc(F)c(=O)[nH]1` [FLUOROURACIL], for which the negative-log IC50 (pIC50) in assay [1] was 3.41; in assay [2], 3.69.

Consider `CNC(=O)c1cc(Oc2ccc(NC(=O)Nc3ccc(Cl)c(C(F)(F)F)c3)cc2)ccn1` [SORAFENIB], for which the pIC50 was 4.95 in assay [3] and 4.92 in assay [4].

Source of the values: ChEMBL document CHEMBL4477230, “Cytotoxic effect of levoglucosenone and related derivatives against human hepatocarcinoma cell lines” (Bioorg Med Chem Lett, 2016).
